# Measured values published in US8895761B2, “4-phenylpyrane-3,5-diones, 4-phenylthiopyrane-3,5-diones and 2-phenylcyclohexane-1,3,5-triones as herbicides” (Syngenta Limited, priority 2007, dated 2014).
# Columns and labels:
# Assay type in all cases: in vivo
# Setaria faberi (SETFA) [1] = assay: Post-emergence herbicidal glasshouse test, Setaria faberi; settings: Setaria faberi, 312 h, rate 250 g/ha, evaluated after 13 days, scale 100 = total damage to plant, 0 = no damage
# Description: (§1) Seeds of a variety of test species were sown in standard soil in pots. After cultivation for one day (pre-emergence) or after 8 days cultivation (post-emergence) under controlled conditions in a glasshouse (at 24/16° C., day/night; 14 hours light; 65% humidity), the plants were sprayed with an aqueous spray solution derived from the formulation of the technical active ingredient in acetone/water (50:50) solution containing 0.5% Tween 20 (polyoxyethelyene sorbitan monolaurate, CAS RN 9005-64-5). The test plants were then grown in a glasshouse under controlled conditions in a glasshouse (at 24/16° C., day/night; 14 hours light; 65% humidity) and watered twice daily. After 13 days for pre and post-emergence, the test was evaluated ([…] to plant; 0=no damage to plant).
# (§2) Setaria faberi (SETFA), Lolium perenne (LOLPE), Alopecurus myosuroides (ALOMY), Echinochloa crus-galli (ECHCG) and Avena fatua (AVEFA).
# [2] = test system: Echinochloa crus-galli (ECHCG); assay: Pre-emergence herbicidal glasshouse test, Echinochloa crus-galli; settings: Echinochloa crus-galli, 312 h, rate 250 g/ha, evaluated after 13 days, scale 100 = total damage to plant, 0 = no damage
# Outline: (§3)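 Plant damage is rated 13 days after treatment, from 0 (none) to total kill. Application is to soil one day post-sowing for pre-emergence, or to 8-day-old plants for post-emergence, using an aqueous spray of compound formulated in 50:50 acetone/water containing 0.5% Tween 20.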
# Avena fatua (AVEFA) [3] = assay: Pre-emergence herbicidal glasshouse test, Avena fatua; settings: Avena fatua, 312 h, rate 250 g/ha, evaluated after 13 days, scale 100 = total damage to plant, 0 = no damage
# Outline: as §3
# [4] = test system: Alopecurus myosuroides (ALOMY); assay: Pre-emergence herbicidal glasshouse test, Alopecurus myosuroides; settings: Alopecurus myosuroides, 312 h, rate 250 g/ha, evaluated after 13 days, scale 100 = total damage to plant, 0 = no damage
# Outline: as §3
# [5] = test system: Echinochloa crus-galli (ECHCG); assay: Post-emergence herbicidal glasshouse test, Echinochloa crus-galli; settings: Echinochloa crus-galli, 312 h, rate 250 g/ha, evaluated after 13 days, scale 100 = total damage to plant, 0 = no damage
# Outline: as §3
# Setaria faberi (SETFA) [6] = assay: Pre-emergence herbicidal glasshouse test, Setaria faberi; settings: Setaria faberi, 312 h, rate 250 g/ha, evaluated after 13 days, scale 100 = total damage to plant, 0 = no damage
# Description: as §1, §2
# [7] = test system: Alopecurus myosuroides (ALOMY); assay: Post-emergence herbicidal glasshouse test, Alopecurus myosuroides; settings: Alopecurus myosuroides, 312 h, rate 250 g/ha, evaluated after 13 days, scale 100 = total damage to plant, 0 = no damage
# Outline: as §3
# Avena fatua (AVEFA) [8] = assay: Post-emergence herbicidal glasshouse test, Avena fatua; settings: Avena fatua, 312 h, rate 250 g/ha, evaluated after 13 days, scale 100 = total damage to plant, 0 = no damage
# Outline: as §3
SMILES,pest or weed control at 250 g/ha (Setaria faberi (SETFA) [1]),pest or weed control at 250 g/ha [2],pest or weed control at 250 g/ha (Avena fatua (AVEFA) [3]),pest or weed control at 250 g/ha [4],pest or weed control at 250 g/ha [5],pest or weed control at 250 g/ha (Setaria faberi (SETFA) [6]),pest or weed control at 250 g/ha [7],pest or weed control at 250 g/ha (Avena fatua (AVEFA) [8])
CCc1cc(-c2ccccc2)ccc1C1=C(O)[C@@]2(C)CC[C@H](O2)C1=O (racemic) [Compound A-4],60%,40%,0%,40%,80%,20%,80%,0%
CCc1cc(-c2ccc(Cl)cc2)ccc1C1=C(O)[C@@]2(C)CC[C@H](O2)C1=O (racemic) [Compound A-5],100%,40%,0%,30%,100%,70%,90%,70%
CCc1cc(-c2ccc(C)cc2)ccc1C1=C(O)[C@@]2(C)CC[C@H](O2)C1=O (racemic) [Compound A-6],80%,0%,0%,0%,80%,0%,70%,30%
Cc1cc(-c2ccc(Cl)cc2)ccc1C1=C(O)[C@@]2(C)CC[C@H](O2)C1=O (racemic) [Compound A-10],100%,30%,0%,0%,100%,0%,90%,50%
CCc1cc(-c2ccc(Cl)cc2)cc(CC)c1C1=C(O)[C@@]2(C)CC[C@H](O2)C1=O (racemic) [Compound A-11],100%,100%,100%,80%,100%,100%,100%,100%
CCc1cc(-c2ccc(C)cc2)cc(CC)c1C1=C(O)[C@@]2(C)CC[C@H](O2)C1=O (racemic) [Compound A-12],100%,70%,20%,30%,100%,80%,70%,0%
CCc1cc(-c2ccc(Cl)c(F)c2)ccc1C1=C(O)[C@@]2(C)CC[C@H](O2)C1=O (racemic) [Compound A-24],100%,100%,60%,70%,100%,90%,90%,80%
CCc1cc(-c2c(F)cc(Cl)cc2F)ccc1C1=C(O)[C@@]2(C)CC[C@H](O2)C1=O (racemic) [Compound A-27],100%,40%,0%,20%,100%,30%,90%,70%
CCc1cc(-c2ccc(Cl)c(F)c2Cl)ccc1C1=C(O)[C@@]2(C)CC[C@H](O2)C1=O (racemic) [Compound A-29],100%,40%,50%,30%,100%,50%,90%,60%
CCc1cc(-c2ccc(Cl)c(F)c2F)ccc1C1=C(O)[C@@]2(C)CC[C@H](O2)C1=O (racemic) [Compound A-30],90%,0%,0%,0%,50%,0%,30%,0%
